{
  "source": "PubChem BioAssay (NCI)",
  "assay_in_all_cases": "NCI anticancer screen, dose series, 48 h",
  "key": {"[1]": {"test_system": "SK-MEL-2 melanoma"}, "[2]": {"test_system": "HOP-62 NSCLC"}, "[3]": {"test_system": "A549 NSCLC"}, "[4]": {"test_system": "SK-MEL-28 melanoma"}, "[5]": {"test_system": "COLO 205 colon"}, "[6]": {"test_system": "KM12 colon"}, "[7]": {"test_system": "OVCAR-8 ovarian"}, "[8]": {"test_system": "DU-145 prostate"}, "[9]": {"test_system": "M14 melanoma"}, "[10]": {"test_system": "UACC-62 melanoma"}, "[11]": {"test_system": "SF-539 CNS"}, "[12]": {"test_system": "UO-31 renal"}, "[13]": {"test_system": "SNB-75 CNS"}, "[14]": {"test_system": "ACHN renal"}, "[15]": {"test_system": "UACC-257 melanoma"}, "[16]": {"test_system": "PC-3 prostate"}, "[17]": {"test_system": "HCT-116 colon"}, "[18]": {"test_system": "TK-10 renal"}, "[19]": {"test_system": "OVCAR-3 ovarian"}, "[20]": {"test_system": "BT-549 breast"}, "[21]": {"test_system": "SK-MEL-5 melanoma"}, "[22]": {"test_system": "SF-268 CNS"}, "[23]": {"test_system": "RPMI-8226 leukemia"}, "[24]": {"test_system": "SF-295 CNS"}, "[25]": {"test_system": "HS 578T breast"}, "[26]": {"test_system": "MALME-3M melanoma"}, "[27]": {"test_system": "SN12C renal"}, "[28]": {"test_system": "HCC-2998 colon"}, "[29]": {"test_system": "SW-620 colon"}, "[30]": {"test_system": "NCI-H522 lung"}, "[31]": {"test_system": "HCT-15 colon"}, "[32]": {"test_system": "MDA-N"}, "[33]": {"test_system": "MDA-MB-435"}, "[34]": {"test_system": "OVCAR-4 ovarian"}, "[35]": {"test_system": "NCI-H23 lung"}, "[36]": {"test_system": "T-47D breast"}, "[37]": {"test_system": "OVCAR-5 ovarian"}, "[38]": {"test_system": "CAKI-1 renal"}, "[39]": {"test_system": "NCI/ADR-RES ovarian"}, "[40]": {"test_system": "SNB-19 CNS"}, "[41]": {"test_system": "EKVX NSCLC"}, "[42]": {"test_system": "HOP-92 NSCLC"}, "[43]": {"test_system": "HL-60(TB) leukemia"}, "[44]": {"test_system": "MCF7 breast"}, "[45]": {"test_system": "RXF 393 renal"}, "[46]": {"test_system": "786-0 renal"}, "[47]": {"test_system": "MDA-MB-231 breast"}, "[48]": {"test_system": "K-562 leukemia"}, "[49]": {"test_system": "HT29 colon"}, "[50]": {"test_system": "LOX IMVI melanoma"}, "[51]": {"test_system": "IGROV1 ovarian"}, "[52]": {"test_system": "U251 CNS"}, "[53]": {"test_system": "CCRF-CEM leukemia"}, "[54]": {"test_system": "A498 renal"}},
  "note": "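48-hour exposure; five concentrations; linearly interpolated endpoints. The concentration for full growth arrest is given as TGI.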",
  "data": [
    {"smiles": "O=C(NCCCN1CCN(CCCNC(=O)Nc2cccc3ccccc23)CC1)Nc1cccc2ccccc12", "values": [
      {"measurement": "TGI", "setting": "[1]", "value": 34.2, "unit": "µM"},
      {"measurement": "TGI", "setting": "[2]", "value": 23.9, "unit": "µM"},
      {"measurement": "TGI", "setting": "[3]", "value": 33.5, "unit": "µM"},
      {"measurement": "TGI", "setting": "[4]", "value": 28.7, "unit": "µM"},
      {"measurement": "TGI", "setting": "[5]", "value": 31.5, "unit": "µM"},
      {"measurement": "TGI", "setting": "[6]", "value": 43.3, "unit": "µM"},
      {"measurement": "TGI", "setting": "[7]", "value": 38.7, "unit": "µM"},
      {"measurement": "TGI", "setting": "[8]", "value": 31.3, "unit": "µM"},
      {"measurement": "TGI", "setting": "[9]", "value": 29.9, "unit": "µM"},
      {"measurement": "TGI", "setting": "[10]", "value": 11.9, "unit": "µM"},
      {"measurement": "TGI", "setting": "[11]", "value": 34.3, "unit": "µM"},
      {"measurement": "TGI", "setting": "[12]", "value": 31.2, "unit": "µM"},
      {"measurement": "TGI", "setting": "[13]", "value": 36.5, "unit": "µM"},
      {"measurement": "TGI", "setting": "[14]", "value": 30.1, "unit": "µM"},
      {"measurement": "TGI", "setting": "[15]", "value": 25.9, "unit": "µM"},
      {"measurement": "TGI", "setting": "[16]", "value": 21.5, "unit": "µM"},
      {"measurement": "TGI", "setting": "[17]", "value": 28, "unit": "µM"},
      {"measurement": "TGI", "setting": "[18]", "value": 28.4, "unit": "µM"},
      {"measurement": "TGI", "setting": "[19]", "value": 26.5, "unit": "µM"},
      {"measurement": "TGI", "setting": "[20]", "value": 27.1, "unit": "µM"},
      {"measurement": "TGI", "setting": "[21]", "value": 30.2, "unit": "µM"},
      {"measurement": "TGI", "setting": "[22]", "value": 38.8, "unit": "µM"},
      {"measurement": "TGI", "setting": "[23]", "value": 40, "unit": "µM"},
      {"measurement": "TGI", "setting": "[24]", "value": 27.4, "unit": "µM"},
      {"measurement": "TGI", "setting": "[25]", "value": 49.1, "unit": "µM"},
      {"measurement": "TGI", "setting": "[26]", "value": 11.8, "unit": "µM"},
      {"measurement": "TGI", "setting": "[27]", "value": 30.7, "unit": "µM"},
      {"measurement": "TGI", "setting": "[28]", "value": 4.58, "unit": "µM"},
      {"measurement": "TGI", "setting": "[29]", "value": 22.9, "unit": "µM"},
      {"measurement": "TGI", "setting": "[30]", "value": 33.4, "unit": "µM"},
      {"measurement": "TGI", "setting": "[31]", "value": 31.9, "unit": "µM"},
      {"measurement": "TGI", "setting": "[32]", "value": 30, "unit": "µM"},
      {"measurement": "TGI", "setting": "[33]", "value": 31.4, "unit": "µM"},
      {"measurement": "TGI", "setting": "[34]", "value": 44.1, "unit": "µM"},
      {"measurement": "TGI", "setting": "[35]", "value": 33.6, "unit": "µM"},
      {"measurement": "TGI", "setting": "[36]", "value": 32.1, "unit": "µM"},
      {"measurement": "TGI", "setting": "[37]", "value": 28.3, "unit": "µM"},
      {"measurement": "TGI", "setting": "[38]", "value": 31.7, "unit": "µM"},
      {"measurement": "TGI", "setting": "[39]", "value": "> 100", "unit": "µM"},
      {"measurement": "TGI", "setting": "[40]", "value": 48.4, "unit": "µM"},
      {"measurement": "TGI", "setting": "[41]", "value": 33.2, "unit": "µM"},
      {"measurement": "TGI", "setting": "[42]", "value": 29.5, "unit": "µM"},
      {"measurement": "TGI", "setting": "[43]", "value": 67.2, "unit": "µM"},
      {"measurement": "TGI", "setting": "[44]", "value": 36.4, "unit": "µM"},
      {"measurement": "TGI", "setting": "[45]", "value": 27.6, "unit": "µM"},
      {"measurement": "TGI", "setting": "[46]", "value": 34.1, "unit": "µM"},
      {"measurement": "TGI", "setting": "[47]", "value": 8.21, "unit": "µM"},
      {"measurement": "TGI", "setting": "[48]", "value": "> 100", "unit": "µM"},
      {"measurement": "TGI", "setting": "[49]", "value": 44.3, "unit": "µM"},
      {"measurement": "TGI", "setting": "[50]", "value": 20.7, "unit": "µM"},
      {"measurement": "TGI", "setting": "[51]", "value": 35.9, "unit": "µM"},
      {"measurement": "TGI", "setting": "[52]", "value": 18.9, "unit": "µM"},
      {"measurement": "TGI", "setting": "[53]", "value": 71.3, "unit": "µM"},
      {"measurement": "TGI", "setting": "[54]", "value": 30.5, "unit": "µM"}
    ]}
  ]
}
